Laboratory results published in US20160166608A1, “METHODS OF TREATING CANCER WITH HIGH POTENCY LIPID-BASED PLATINUM COMPOUND FORMULATIONS ADMINISTERED INTRAPERITONEALLY” (Insmed Incorporated, priority 2005, published 2016).

Test system: L1210 cells
Experiment: Survival of DBA/2 mice with L1210 cells after a single ip bolus (Example 15)
Format: in vivo, mouse
Conditions: 6 mg/kg single ip bolus on day 5; L1210, DBA/2 mice
Procedure: DPPC (3.0 g) and cholesterol (1.2 g) were co-dissolved in 20 mL of ethanol. • 2.
The mice were given equivalent amounts of cisplatin containing therapeutics based on the amount of lipid instead of the amount of cisplatin.
Female DBA/2 mice (Charles Rivers) were used. Thirty (30) mice were injected with 2×10^6 L1210 cells ip on Day 0. On day 1, the mice were weighed and randomized into 3 groups of 10 mice. […] Survival was monitored. Mice were weighed daily after day 10. Mice that lost 20% or greater of their starting weight were euthanized by CO2 inhalation. The date of their death was recorded on data sheets. Median survival was calculated by Prism GraphPad.

N.N.[Cl][Pt][Cl] [cisplatin, cis-diamine-dichloroplatinum (II)]
days of median survival: 19.5 days
